In ChEMBL document CHEMBL3044736, “Synthesis, characterization, solvatochromic properties, and antimicrobial evaluation of 5-acetyl-2-thioxo-dihydro-pyrimidine-4,6-dione-based chalcones” (2013):
≈ marks a conversion by molar mass, not a printed value.

Legend:
Format in all cases: functional
Penicillium [1] = assay: Antimicrobial activity against Penicillium wild strain assessed as diameter of growth inhibition zone at 250 ug/ml after 48-96 hr by agar cup diffusion method; details: read-out: DIZ
Penicillium [2] = assay: Antimicrobial activity against Penicillium wild strain assessed as diameter of growth inhibition zone at 100 ug/ml after 48-96 hr by agar cup diffusion method; details: read-out: DIZ
Trichophyton rubrum [3] = assay: Antimicrobial activity against Trichophyton rubrum MTCC 296 assessed as diameter of growth inhibition zone at 100 ug/ml after 48-96 hr by agar cup diffusion method; details: read-out: DIZ
Aspergillus clavatus [4] = assay: Antimicrobial activity against Aspergillus clavatus MTCC 1323 assessed as diameter of growth inhibition zone at 100 ug/ml after 48-96 hr by agar cup diffusion method; details: read-out: DIZ
Candida albicans [5] = assay: Antimicrobial activity against Candida albicans MTCC 227 assessed as diameter of growth inhibition zone at 100 ug/ml after 48-96 hr by agar cup diffusion method; details: read-out: DIZ
Penicillium [6] = assay: Antimicrobial activity against Penicillium wild strain assessed as diameter of growth inhibition zone at 50 ug/ml after 48-96 hr by agar cup diffusion method; details: read-out: DIZ
Trichophyton rubrum [7] = assay: Antimicrobial activity against Trichophyton rubrum MTCC 296 assessed as diameter of growth inhibition zone at 50 ug/ml after 48-96 hr by agar cup diffusion method; details: read-out: DIZ
Aspergillus clavatus [8] = assay: Antimicrobial activity against Aspergillus clavatus MTCC 1323 assessed as diameter of growth inhibition zone at 50 ug/ml after 48-96 hr by agar cup diffusion method; details: read-out: DIZ
Candida albicans [9] = assay: Antimicrobial activity against Candida albicans MTCC 227 assessed as diameter of growth inhibition zone at 50 ug/ml after 48-96 hr by agar cup diffusion method; details: read-out: DIZ
Penicillium [10] = assay: Antimicrobial activity against Penicillium wild strain assessed as diameter of growth inhibition zone at 25 ug/ml after 48-96 hr by agar cup diffusion method; details: read-out: DIZ
Trichophyton rubrum [11] = assay: Antimicrobial activity against Trichophyton rubrum MTCC 296 assessed as diameter of growth inhibition zone at 25 ug/ml after 48-96 hr by agar cup diffusion method; details: read-out: DIZ
Aspergillus clavatus [12] = assay: Antimicrobial activity against Aspergillus clavatus MTCC 1323 assessed as diameter of growth inhibition zone at 25 ug/ml after 48-96 hr by agar cup diffusion method; details: read-out: DIZ
Candida albicans [13] = assay: Antimicrobial activity against Candida albicans MTCC 227 assessed as diameter of growth inhibition zone at 25 ug/ml after 48-96 hr by agar cup diffusion method; details: read-out: DIZ
Penicillium [14] = assay: Antimicrobial activity against Penicillium wild strain by agar cup diffusion method
Aspergillus clavatus [15] = assay: Antimicrobial activity against Aspergillus clavatus MTCC 1323 by agar cup diffusion method
Pseudomonas aeruginosa [16] = assay: Antimicrobial activity against Pseudomonas aeruginosa MTCC 1688 assessed as diameter of growth inhibition zone at 25 ug/ml after 18-24 hr by agar cup diffusion method; details: read-out: DIZ
Escherichia coli [17] = assay: Antimicrobial activity against Escherichia coli MTCC 443 assessed as diameter of growth inhibition zone at 25 ug/ml after 18-24 hr by agar cup diffusion method; details: read-out: DIZ
Staphylococcus aureus [18] = assay: Antimicrobial activity against Staphylococcus aureus MTCC 96 assessed as diameter of growth inhibition zone at 25 ug/ml after 18-24 hr by agar cup diffusion method; details: read-out: DIZ
Streptococcus pyogenes [19] = assay: Antimicrobial activity against Streptococcus pyogenes MTCC 442 assessed as diameter of growth inhibition zone at 25 ug/ml after 18-24 hr by agar cup diffusion method; details: read-out: DIZ
Klebsiella pneumoniae [20] = assay: Antimicrobial activity against Klebsiella pneumoniae MTCC 109 by agar cup diffusion method
Escherichia coli [21] = assay: Antimicrobial activity against Escherichia coli MTCC 443 by agar cup diffusion method
Pseudomonas aeruginosa [22] = assay: Antimicrobial activity against Pseudomonas aeruginosa MTCC 1688 by agar cup diffusion method
Staphylococcus aureus [23] = assay: Antimicrobial activity against Staphylococcus aureus MTCC 96 by agar cup diffusion method
Streptococcus pyogenes [24] = assay: Antimicrobial activity against Streptococcus pyogenes MTCC 442 by agar cup diffusion method
Trichophyton rubrum [25] = assay: Antimicrobial activity against Trichophyton rubrum MTCC 296 by agar cup diffusion method
Candida albicans [26] = assay: Antimicrobial activity against Candida albicans MTCC 227 by agar cup diffusion method
Klebsiella pneumoniae [27] = assay: Antimicrobial activity against Klebsiella pneumoniae MTCC 109 assessed as diameter of growth inhibition zone at 250 ug/ml after 18-24 hr by agar cup diffusion method; details: read-out: DIZ
Pseudomonas aeruginosa [28] = assay: Antimicrobial activity against Pseudomonas aeruginosa MTCC 1688 assessed as diameter of growth inhibition zone at 250 ug/ml after 18-24 hr by agar cup diffusion method; details: read-out: DIZ
Escherichia coli [29] = assay: Antimicrobial activity against Escherichia coli MTCC 443 assessed as diameter of growth inhibition zone at 250 ug/ml after 18-24 hr by agar cup diffusion method; details: read-out: DIZ
Staphylococcus aureus [30] = assay: Antimicrobial activity against Staphylococcus aureus MTCC 96 assessed as diameter of growth inhibition zone at 250 ug/ml after 18-24 hr by agar cup diffusion method; details: read-out: DIZ
Streptococcus pyogenes [31] = assay: Antimicrobial activity against Streptococcus pyogenes MTCC 442 assessed as diameter of growth inhibition zone at 250 ug/ml after 18-24 hr by agar cup diffusion method; details: read-out: DIZ
Klebsiella pneumoniae [32] = assay: Antimicrobial activity against Klebsiella pneumoniae MTCC 109 assessed as diameter of growth inhibition zone at 100 ug/ml after 18-24 hr by agar cup diffusion method; details: read-out: DIZ
Pseudomonas aeruginosa [33] = assay: Antimicrobial activity against Pseudomonas aeruginosa MTCC 1688 assessed as diameter of growth inhibition zone at 100 ug/ml after 18-24 hr by agar cup diffusion method; details: read-out: DIZ
Escherichia coli [34] = assay: Antimicrobial activity against Escherichia coli MTCC 443 assessed as diameter of growth inhibition zone at 100 ug/ml after 18-24 hr by agar cup diffusion method; details: read-out: DIZ
Staphylococcus aureus [35] = assay: Antimicrobial activity against Staphylococcus aureus MTCC 96 assessed as diameter of growth inhibition zone at 100 ug/ml after 18-24 hr by agar cup diffusion method; details: read-out: DIZ
Streptococcus pyogenes [36] = assay: Antimicrobial activity against Streptococcus pyogenes MTCC 442 assessed as diameter of growth inhibition zone at 100 ug/ml after 18-24 hr by agar cup diffusion method; details: read-out: DIZ
Klebsiella pneumoniae [37] = assay: Antimicrobial activity against Klebsiella pneumoniae MTCC 109 assessed as diameter of growth inhibition zone at 50 ug/ml after 18-24 hr by agar cup diffusion method; details: read-out: DIZ
Pseudomonas aeruginosa [38] = assay: Antimicrobial activity against Pseudomonas aeruginosa MTCC 1688 assessed as diameter of growth inhibition zone at 50 ug/ml after 18-24 hr by agar cup diffusion method; details: read-out: DIZ
Escherichia coli [39] = assay: Antimicrobial activity against Escherichia coli MTCC 443 assessed as diameter of growth inhibition zone at 50 ug/ml after 18-24 hr by agar cup diffusion method; details: read-out: DIZ
Staphylococcus aureus [40] = assay: Antimicrobial activity against Staphylococcus aureus MTCC 96 assessed as diameter of growth inhibition zone at 50 ug/ml after 18-24 hr by agar cup diffusion method; details: read-out: DIZ
Streptococcus pyogenes [41] = assay: Antimicrobial activity against Streptococcus pyogenes MTCC 442 assessed as diameter of growth inhibition zone at 50 ug/ml after 18-24 hr by agar cup diffusion method; details: read-out: DIZ
Klebsiella pneumoniae [42] = assay: Antimicrobial activity against Klebsiella pneumoniae MTCC 109 assessed as diameter of growth inhibition zone at 25 ug/ml after 18-24 hr by agar cup diffusion method; details: read-out: DIZ
Trichophyton rubrum [43] = assay: Antimicrobial activity against Trichophyton rubrum MTCC 296 assessed as diameter of growth inhibition zone at 250 ug/ml after 48-96 hr by agar cup diffusion method; details: read-out: DIZ
Aspergillus clavatus [44] = assay: Antimicrobial activity against Aspergillus clavatus MTCC 1323 assessed as diameter of growth inhibition zone at 250 ug/ml after 48-96 hr by agar cup diffusion method; details: read-out: DIZ
Candida albicans [45] = assay: Antimicrobial activity against Candida albicans MTCC 227 assessed as diameter of growth inhibition zone at 250 ug/ml after 48-96 hr by agar cup diffusion method; details: read-out: DIZ

For `Cc1ccc(/C=C/C(=O)C2C(=O)NC(=S)NC2=O)cc1`, the zone of inhibition at 250 µg/mL (Penicillium [1]) was 22 mm, the zone of inhibition at 100 µg/mL (Penicillium [2]) was 19 mm and the zone of inhibition at 100 µg/mL (Trichophyton rubrum [3]) was 22 mm. For the same compound, the zone of inhibition at 100 µg/mL (Aspergillus clavatus [4]) was 22 mm, the zone of inhibition at 100 µg/mL (Candida albicans [5]) was 21 mm and the zone of inhibition at 50 µg/mL (Penicillium [6]) was 18 mm. It also gave a zone of inhibition at 50 µg/mL (Trichophyton rubrum [7]) of 20 mm, a zone of inhibition at 50 µg/mL (Aspergillus clavatus [8]) of 22 mm and a zone of inhibition at 50 µg/mL (Candida albicans [9]) of 20 mm. It also gave a zone of inhibition at 25 µg/mL (Penicillium [10]) of 18 mm, a zone of inhibition at 25 µg/mL (Trichophyton rubrum [11]) of 19 mm and a zone of inhibition at 25 µg/mL (Aspergillus clavatus [12]) of 21 mm. It also gave a zone of inhibition at 25 µg/mL (Candida albicans [13]) of 19 mm, an MFC (Penicillium [14]) of over 1000 µg/mL and an MIC (Penicillium [14]) of over 1000 µg/mL. It also gave an MFC (Aspergillus clavatus [15]) of over 1000 µg/mL, an MIC (Aspergillus clavatus [15]) of over 1000 µg/mL and a zone of inhibition at 25 µg/mL (Pseudomonas aeruginosa [16]) of 10 mm. For the same compound, the zone of inhibition at 25 µg/mL (Escherichia coli [17]) was 15 mm, the zone of inhibition at 25 µg/mL (Staphylococcus aureus [18]) was 10 mm and the zone of inhibition at 25 µg/mL (Streptococcus pyogenes [19]) was 15 mm. It also gave an MBC (Klebsiella pneumoniae [20]) of 100 µg/mL (≈ 347 µM), an MIC (Klebsiella pneumoniae [20]) of 100 µg/mL (≈ 347 µM) and an MBC (Escherichia coli [21]) of 200 µg/mL (≈ 694 µM). The MIC (Escherichia coli [21]) was 100 µg/mL (≈ 347 µM), the MBC (Pseudomonas aeruginosa [22]) was 500 µg/mL (≈ 1730 µM) and the MIC (Pseudomonas aeruginosa [22]) was 250 µg/mL (≈ 867 µM). For the same compound, the MBC (Staphylococcus aureus [23]) was 125 µg/mL (≈ 434 µM), the MIC (Staphylococcus aureus [23]) was 125 µg/mL (≈ 434 µM) and the MBC (Streptococcus pyogenes [24]) was 200 µg/mL (≈ 694 µM). It also gave an MIC (Streptococcus pyogenes [24]) of 250 µg/mL (≈ 867 µM), an MFC (Trichophyton rubrum [25]) of over 1000 µg/mL and an MIC (Trichophyton rubrum [25]) of over 1000 µg/mL. The MFC (Candida albicans [26]) was over 1000 µg/mL, the MIC (Candida albicans [26]) was 1000 µg/mL (≈ 3470 µM) and the zone of inhibition at 250 µg/mL (Klebsiella pneumoniae [27]) was 17 mm. For the same compound, the zone of inhibition at 250 µg/mL (Pseudomonas aeruginosa [28]) was 17 mm, the zone of inhibition at 250 µg/mL (Escherichia coli [29]) was 19 mm and the zone of inhibition at 250 µg/mL (Staphylococcus aureus [30]) was 17 mm. It also gave a zone of inhibition at 250 µg/mL (Streptococcus pyogenes [31]) of 19 mm, a zone of inhibition at 100 µg/mL (Klebsiella pneumoniae [32]) of 15 mm and a zone of inhibition at 100 µg/mL (Pseudomonas aeruginosa [33]) of 16 mm. For the same compound, the zone of inhibition at 100 µg/mL (Escherichia coli [34]) was 18 mm, the zone of inhibition at 100 µg/mL (Staphylococcus aureus [35]) was 16 mm and the zone of inhibition at 100 µg/mL (Streptococcus pyogenes [36]) was 18 mm. It also gave a zone of inhibition at 50 µg/mL (Klebsiella pneumoniae [37]) of 14 mm, a zone of inhibition at 50 µg/mL (Pseudomonas aeruginosa [38]) of 12 mm and a zone of inhibition at 50 µg/mL (Escherichia coli [39]) of 15 mm. It also gave a zone of inhibition at 50 µg/mL (Staphylococcus aureus [40]) of 12 mm, a zone of inhibition at 50 µg/mL (Streptococcus pyogenes [41]) of 15 mm and a zone of inhibition at 25 µg/mL (Klebsiella pneumoniae [42]) of 12 mm. The zone of inhibition at 250 µg/mL (Trichophyton rubrum [43]) was 25 mm, the zone of inhibition at 250 µg/mL (Aspergillus clavatus [44]) was 25 mm and the zone of inhibition at 250 µg/mL (Candida albicans [45]) was 24 mm.
